Experimental findings from patent US20200239530A1, “COMPOUNDS AND METHODS OF MODULATING PROTEIN DEGRADATION” (Vividion Therapeutics, Inc., priority 2017, published 2020) are described below.

What all share (assay): Cysteine liganding, probe competition
Common to all, as to assay type: binding

The target of experiment [1] is T1, BIRC2 Baculoviral IAP repeat-containing protein 2 (Homo sapiens, UniProt Q13490).
T1 construct: Cells were resuspended in cold PBS on ice and sonicated with a probe sonicator to achieve lysis; endogenous in cells
Particulars: for Liganded: BIRC2 Res# 45, uniprot Q13490. A digest of the protocol: (§1)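 Read-out is loss of desthiobiotin iodoacetamide labelling at cysteines, measured on streptavidin-enriched tryptic peptides. Compound preincubation ran 1 hr at 25° C in PBS lysate holding 5 mg/ml proteome before the probe was added.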

In experiment [2] the target is T2, TNFAIP3 Tumor necrosis factor alpha-induced protein 3 (Homo sapiens, UniProt P21580).
T2 construct: Cells were resuspended in cold PBS on ice and sonicated with a probe sonicator to achieve lysis; endogenous in cells
T2 sequence (P21580 1-790): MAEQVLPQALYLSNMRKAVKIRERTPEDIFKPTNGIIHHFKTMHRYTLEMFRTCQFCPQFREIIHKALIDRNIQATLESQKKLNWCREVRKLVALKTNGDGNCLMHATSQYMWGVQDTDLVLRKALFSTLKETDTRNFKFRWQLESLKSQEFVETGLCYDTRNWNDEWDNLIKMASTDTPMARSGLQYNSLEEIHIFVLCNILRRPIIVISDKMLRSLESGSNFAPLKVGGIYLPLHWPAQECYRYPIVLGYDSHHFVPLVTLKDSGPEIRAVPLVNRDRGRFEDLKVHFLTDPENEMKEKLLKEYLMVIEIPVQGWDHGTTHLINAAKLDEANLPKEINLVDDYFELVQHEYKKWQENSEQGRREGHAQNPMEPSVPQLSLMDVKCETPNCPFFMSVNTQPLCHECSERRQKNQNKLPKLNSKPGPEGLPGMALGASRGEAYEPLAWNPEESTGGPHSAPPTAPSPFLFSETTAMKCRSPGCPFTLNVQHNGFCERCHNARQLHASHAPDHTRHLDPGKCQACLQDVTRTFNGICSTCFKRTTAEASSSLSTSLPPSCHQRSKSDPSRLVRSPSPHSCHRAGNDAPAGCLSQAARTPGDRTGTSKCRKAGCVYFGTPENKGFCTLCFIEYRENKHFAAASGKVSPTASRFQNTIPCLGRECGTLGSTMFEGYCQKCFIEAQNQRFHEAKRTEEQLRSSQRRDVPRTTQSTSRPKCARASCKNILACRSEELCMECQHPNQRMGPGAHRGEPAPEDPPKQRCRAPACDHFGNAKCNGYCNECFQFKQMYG
In a few lines: as §1

Experiment [3] has as its target T3, UBR4 E3 ubiquitin-protein ligase UBR4 (Homo sapiens, UniProt Q5T4S7).
T3 construct: Cells were resuspended in cold PBS on ice and sonicated with a probe sonicator to achieve lysis; endogenous in cells
In a few lines:
as §1

In experiment [4] the target is T4, VRK3 Inactive serine/threonine-protein kinase VRK3 (Homo sapiens, UniProt Q8IV63).
T4 construct: Cells were resuspended in cold PBS on ice and sonicated with a probe sonicator to achieve lysis; endogenous in cells
T4 sequence (Q8IV63 1-474): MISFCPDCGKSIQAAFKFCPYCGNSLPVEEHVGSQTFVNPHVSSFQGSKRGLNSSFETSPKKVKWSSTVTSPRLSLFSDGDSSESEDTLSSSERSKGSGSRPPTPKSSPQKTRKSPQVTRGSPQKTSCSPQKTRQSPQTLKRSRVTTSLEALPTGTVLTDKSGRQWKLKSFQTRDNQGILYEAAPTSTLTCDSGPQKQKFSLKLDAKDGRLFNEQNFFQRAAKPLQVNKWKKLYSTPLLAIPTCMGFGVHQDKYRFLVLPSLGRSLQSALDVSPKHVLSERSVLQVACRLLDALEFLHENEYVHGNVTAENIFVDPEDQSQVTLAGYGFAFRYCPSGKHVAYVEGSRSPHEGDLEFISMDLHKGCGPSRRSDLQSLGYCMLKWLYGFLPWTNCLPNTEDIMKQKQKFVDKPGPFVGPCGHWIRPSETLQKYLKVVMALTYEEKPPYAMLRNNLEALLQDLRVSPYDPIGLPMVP
A digest of the protocol: as §1

[5] abbreviates: TNFAIP3 Res# 54, uniprot P21580.

T3 sequence (Q5T4S7 whole entry): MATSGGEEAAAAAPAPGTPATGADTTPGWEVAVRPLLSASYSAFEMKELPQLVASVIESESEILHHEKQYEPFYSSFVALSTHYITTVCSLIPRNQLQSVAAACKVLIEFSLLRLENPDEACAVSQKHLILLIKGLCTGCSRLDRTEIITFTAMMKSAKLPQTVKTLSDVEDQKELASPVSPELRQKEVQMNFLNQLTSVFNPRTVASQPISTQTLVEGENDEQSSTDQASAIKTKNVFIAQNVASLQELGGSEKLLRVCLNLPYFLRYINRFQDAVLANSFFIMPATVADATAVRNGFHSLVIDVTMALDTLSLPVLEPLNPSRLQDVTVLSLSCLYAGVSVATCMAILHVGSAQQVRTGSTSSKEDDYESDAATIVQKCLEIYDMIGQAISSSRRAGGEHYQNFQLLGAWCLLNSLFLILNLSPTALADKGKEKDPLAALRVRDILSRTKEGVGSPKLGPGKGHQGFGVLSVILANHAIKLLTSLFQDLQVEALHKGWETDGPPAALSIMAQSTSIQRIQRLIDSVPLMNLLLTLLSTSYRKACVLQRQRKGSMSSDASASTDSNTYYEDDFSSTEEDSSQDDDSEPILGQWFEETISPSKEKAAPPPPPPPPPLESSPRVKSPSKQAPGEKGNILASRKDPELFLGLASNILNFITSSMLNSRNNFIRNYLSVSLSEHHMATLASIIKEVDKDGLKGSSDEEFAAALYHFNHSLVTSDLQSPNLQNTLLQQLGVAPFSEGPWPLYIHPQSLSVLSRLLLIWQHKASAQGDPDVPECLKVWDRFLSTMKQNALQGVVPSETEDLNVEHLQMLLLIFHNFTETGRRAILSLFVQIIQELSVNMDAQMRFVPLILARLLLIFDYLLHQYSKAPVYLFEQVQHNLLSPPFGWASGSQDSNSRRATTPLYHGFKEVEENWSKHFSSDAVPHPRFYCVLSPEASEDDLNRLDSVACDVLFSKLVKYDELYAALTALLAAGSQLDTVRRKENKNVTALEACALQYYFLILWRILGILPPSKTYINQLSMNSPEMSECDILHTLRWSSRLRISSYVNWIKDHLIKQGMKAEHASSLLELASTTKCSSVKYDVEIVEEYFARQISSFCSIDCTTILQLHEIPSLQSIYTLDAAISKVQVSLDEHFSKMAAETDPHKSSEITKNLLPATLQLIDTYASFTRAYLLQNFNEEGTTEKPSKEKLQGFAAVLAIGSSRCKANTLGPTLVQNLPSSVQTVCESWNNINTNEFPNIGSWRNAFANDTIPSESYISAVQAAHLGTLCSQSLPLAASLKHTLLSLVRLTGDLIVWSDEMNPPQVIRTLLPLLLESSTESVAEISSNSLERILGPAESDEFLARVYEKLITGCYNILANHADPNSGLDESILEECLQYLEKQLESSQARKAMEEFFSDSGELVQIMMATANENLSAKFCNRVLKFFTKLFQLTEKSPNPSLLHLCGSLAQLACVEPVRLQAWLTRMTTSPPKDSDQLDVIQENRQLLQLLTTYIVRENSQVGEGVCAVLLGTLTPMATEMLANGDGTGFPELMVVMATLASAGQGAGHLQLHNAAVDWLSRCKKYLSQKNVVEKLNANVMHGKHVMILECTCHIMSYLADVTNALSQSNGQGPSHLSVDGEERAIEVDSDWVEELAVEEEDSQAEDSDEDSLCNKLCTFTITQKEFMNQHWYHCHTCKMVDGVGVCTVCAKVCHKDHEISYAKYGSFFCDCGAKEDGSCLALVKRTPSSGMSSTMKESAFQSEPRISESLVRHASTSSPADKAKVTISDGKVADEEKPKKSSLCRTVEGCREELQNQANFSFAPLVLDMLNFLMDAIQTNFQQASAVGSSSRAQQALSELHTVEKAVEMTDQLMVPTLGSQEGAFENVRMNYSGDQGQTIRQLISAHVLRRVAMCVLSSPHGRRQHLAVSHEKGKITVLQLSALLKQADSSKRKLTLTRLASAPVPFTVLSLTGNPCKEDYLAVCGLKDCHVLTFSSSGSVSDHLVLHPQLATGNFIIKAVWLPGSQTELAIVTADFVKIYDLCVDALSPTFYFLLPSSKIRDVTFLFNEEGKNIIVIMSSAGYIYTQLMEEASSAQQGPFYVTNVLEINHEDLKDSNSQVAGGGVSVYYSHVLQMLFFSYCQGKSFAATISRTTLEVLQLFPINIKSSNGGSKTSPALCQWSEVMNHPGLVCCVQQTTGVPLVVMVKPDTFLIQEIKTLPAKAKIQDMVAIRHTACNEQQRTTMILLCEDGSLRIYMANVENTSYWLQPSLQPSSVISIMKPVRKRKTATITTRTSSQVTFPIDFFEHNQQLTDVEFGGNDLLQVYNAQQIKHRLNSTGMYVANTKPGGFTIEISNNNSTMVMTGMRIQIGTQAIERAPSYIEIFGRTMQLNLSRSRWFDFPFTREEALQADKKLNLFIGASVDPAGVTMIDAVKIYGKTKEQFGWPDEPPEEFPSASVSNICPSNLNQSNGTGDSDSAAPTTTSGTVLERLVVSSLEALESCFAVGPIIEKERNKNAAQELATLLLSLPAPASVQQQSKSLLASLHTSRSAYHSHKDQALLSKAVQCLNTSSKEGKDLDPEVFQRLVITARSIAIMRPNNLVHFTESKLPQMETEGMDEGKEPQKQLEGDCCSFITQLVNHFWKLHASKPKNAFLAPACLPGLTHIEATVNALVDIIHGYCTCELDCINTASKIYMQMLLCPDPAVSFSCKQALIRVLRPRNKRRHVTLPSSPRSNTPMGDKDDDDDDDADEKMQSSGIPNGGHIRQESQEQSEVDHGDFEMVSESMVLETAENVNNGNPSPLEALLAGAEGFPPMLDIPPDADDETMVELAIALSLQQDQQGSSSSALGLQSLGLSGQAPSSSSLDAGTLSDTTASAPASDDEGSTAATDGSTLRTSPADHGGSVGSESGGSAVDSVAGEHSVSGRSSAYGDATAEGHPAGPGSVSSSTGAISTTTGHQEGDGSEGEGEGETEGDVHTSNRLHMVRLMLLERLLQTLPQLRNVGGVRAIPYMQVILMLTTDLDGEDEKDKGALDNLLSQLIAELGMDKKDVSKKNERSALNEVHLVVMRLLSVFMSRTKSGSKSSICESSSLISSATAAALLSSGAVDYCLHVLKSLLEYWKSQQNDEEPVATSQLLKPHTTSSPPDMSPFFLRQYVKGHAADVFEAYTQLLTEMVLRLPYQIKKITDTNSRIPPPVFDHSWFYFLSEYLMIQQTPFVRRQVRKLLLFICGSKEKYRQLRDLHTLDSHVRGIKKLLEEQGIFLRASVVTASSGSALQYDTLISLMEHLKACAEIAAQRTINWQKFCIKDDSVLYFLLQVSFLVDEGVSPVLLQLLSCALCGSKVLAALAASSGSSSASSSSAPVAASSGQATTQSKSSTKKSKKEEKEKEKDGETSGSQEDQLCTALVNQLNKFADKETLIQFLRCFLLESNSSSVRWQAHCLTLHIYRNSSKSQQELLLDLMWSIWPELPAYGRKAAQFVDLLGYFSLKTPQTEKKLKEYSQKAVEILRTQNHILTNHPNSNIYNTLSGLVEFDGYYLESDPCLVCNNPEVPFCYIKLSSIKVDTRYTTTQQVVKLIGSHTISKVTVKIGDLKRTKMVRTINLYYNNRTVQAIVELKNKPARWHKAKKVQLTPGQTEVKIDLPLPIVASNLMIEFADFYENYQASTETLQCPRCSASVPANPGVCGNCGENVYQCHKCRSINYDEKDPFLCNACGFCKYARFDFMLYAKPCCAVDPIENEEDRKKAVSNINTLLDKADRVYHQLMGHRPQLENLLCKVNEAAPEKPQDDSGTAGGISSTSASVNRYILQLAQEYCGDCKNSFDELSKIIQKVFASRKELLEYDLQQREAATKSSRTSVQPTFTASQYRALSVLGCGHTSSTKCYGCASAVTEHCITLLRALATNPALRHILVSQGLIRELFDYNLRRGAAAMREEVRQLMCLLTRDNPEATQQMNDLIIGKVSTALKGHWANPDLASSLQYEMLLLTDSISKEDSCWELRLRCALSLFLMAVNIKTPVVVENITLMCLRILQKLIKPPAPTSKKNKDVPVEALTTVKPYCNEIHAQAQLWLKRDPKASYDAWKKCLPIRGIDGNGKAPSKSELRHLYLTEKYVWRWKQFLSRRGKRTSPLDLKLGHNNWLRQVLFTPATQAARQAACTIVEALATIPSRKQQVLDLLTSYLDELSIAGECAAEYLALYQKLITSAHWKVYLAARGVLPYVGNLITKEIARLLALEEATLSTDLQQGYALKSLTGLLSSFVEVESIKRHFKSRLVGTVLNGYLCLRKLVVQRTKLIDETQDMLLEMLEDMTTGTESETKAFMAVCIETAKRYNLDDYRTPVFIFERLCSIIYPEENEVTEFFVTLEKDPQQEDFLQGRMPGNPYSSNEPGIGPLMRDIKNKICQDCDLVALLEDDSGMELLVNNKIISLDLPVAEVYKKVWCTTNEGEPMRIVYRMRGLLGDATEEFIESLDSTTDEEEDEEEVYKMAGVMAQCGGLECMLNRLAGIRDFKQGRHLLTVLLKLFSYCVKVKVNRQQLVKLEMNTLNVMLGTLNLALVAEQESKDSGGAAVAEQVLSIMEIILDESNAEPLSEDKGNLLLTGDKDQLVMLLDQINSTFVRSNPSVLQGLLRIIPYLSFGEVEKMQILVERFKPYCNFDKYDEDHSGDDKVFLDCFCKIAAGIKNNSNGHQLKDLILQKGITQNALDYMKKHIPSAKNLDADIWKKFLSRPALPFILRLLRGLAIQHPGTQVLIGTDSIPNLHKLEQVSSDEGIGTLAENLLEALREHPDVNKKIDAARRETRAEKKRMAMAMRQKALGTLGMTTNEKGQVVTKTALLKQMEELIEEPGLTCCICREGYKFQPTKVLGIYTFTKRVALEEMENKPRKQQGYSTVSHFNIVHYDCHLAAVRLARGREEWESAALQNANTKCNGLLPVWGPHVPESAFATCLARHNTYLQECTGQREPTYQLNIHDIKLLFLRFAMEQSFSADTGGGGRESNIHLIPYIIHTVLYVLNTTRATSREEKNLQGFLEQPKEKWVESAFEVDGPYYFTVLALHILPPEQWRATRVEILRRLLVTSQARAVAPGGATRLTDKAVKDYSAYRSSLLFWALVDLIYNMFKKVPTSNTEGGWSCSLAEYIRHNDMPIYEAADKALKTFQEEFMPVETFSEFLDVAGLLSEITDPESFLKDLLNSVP

Consider `O=C(CCl)Nc1cc(C(F)(F)F)cc(C(F)(F)F)c1` [KBO3], for which the Liganded result in experiment [1] and in experiment [2] (setting [5]) was “YES” each time. Besides, the “100 Max” value is on record as 47.9 in experiment [1] (uniprot Q13490), 13.1 in experiment [3] (uniprot Q5T4S7) and −8.38 in experiment [4] (uniprot Q8IV63). Also, the results for the 100 ave in experiment [1] (uniprot Q13490), in experiment [3] (uniprot Q5T4S7) and in experiment [4] (uniprot Q8IV63) were 41.4, −4.9 and −10.03, respectively. The “500 Max” value was found to be 92.0 in experiment [1] (uniprot Q13490); 49.5 in experiment [3] (uniprot Q5T4S7); 14.41 in experiment [4] (uniprot Q8IV63, in % (unit assumed)). Also, the 500 ave stood at 85.9 in experiment [1] (uniprot Q13490), 29.3 in experiment [3] (uniprot Q5T4S7) and 14.41 in experiment [4] (uniprot Q8IV63).
Take `COc1ccc2c(c1)CCCN2C(=O)CCl` [KB02]: the Liganded result in experiment [1] is “YES”; in experiment [2] (setting [5]), “YES”; in experiment [2] (TNFAIP3 Res# 536, uniprot P21580), “YES”; in experiment [2] (TNFAIP3 Res# 579, uniprot P21580), “YES”; in experiment [3] (UBR4 Res# 4049, uniprot Q5T4S7), “YES”; in experiment [4] (VRK3 Res# 191, uniprot Q8IV63) it was “YES”.
